The target in data set [1] is T1, eugenol synthase (EGS, EGS1) (Ocimum basilicum, UniProt Q15GI4). Description: X-ray co-crystal structure ([…] Å, soaking); enzyme inhibition kinetics (GC/MS). The class given is biochemical.
Data set [2] deals with T2, eugenol synthase (EGS, EGS1) (Ocimum basilicum, UniProt Q15GI4, K132A).
T2 sequence (Q15GI4 1-314 K132A): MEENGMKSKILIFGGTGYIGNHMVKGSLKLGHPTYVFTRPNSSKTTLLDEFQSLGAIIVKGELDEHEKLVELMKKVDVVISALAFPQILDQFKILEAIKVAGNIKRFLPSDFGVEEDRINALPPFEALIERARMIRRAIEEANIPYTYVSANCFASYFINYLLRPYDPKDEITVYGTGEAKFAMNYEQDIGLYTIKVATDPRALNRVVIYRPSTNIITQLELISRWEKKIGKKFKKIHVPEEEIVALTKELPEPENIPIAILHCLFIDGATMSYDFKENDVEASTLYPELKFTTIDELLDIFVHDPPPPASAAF
The data set can be described thus: X-ray crystallography (no deposition stated). The class given is binding.

The target of data set [3] is T3, eugenol synthase (EGS, EGS1) (Ocimum basilicum, UniProt Q15GI4, K132Q).
T3 sequence (Q15GI4 1-314 K132Q): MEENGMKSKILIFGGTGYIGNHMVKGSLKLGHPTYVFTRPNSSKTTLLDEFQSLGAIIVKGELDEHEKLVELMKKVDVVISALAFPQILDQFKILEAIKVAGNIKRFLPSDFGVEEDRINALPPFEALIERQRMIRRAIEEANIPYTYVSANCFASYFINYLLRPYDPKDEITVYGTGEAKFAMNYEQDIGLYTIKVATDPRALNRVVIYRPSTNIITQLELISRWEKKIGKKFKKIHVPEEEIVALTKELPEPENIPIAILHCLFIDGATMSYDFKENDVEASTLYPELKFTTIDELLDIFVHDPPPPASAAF
Description: X-ray co-crystal structure ([…] Å). The class given is binding.

In data set [4] the target is T4, eugenol synthase (EGS, EGS1) (Ocimum basilicum, UniProt Q15GI4, K132R).
T4 sequence (Q15GI4 1-314 K132R): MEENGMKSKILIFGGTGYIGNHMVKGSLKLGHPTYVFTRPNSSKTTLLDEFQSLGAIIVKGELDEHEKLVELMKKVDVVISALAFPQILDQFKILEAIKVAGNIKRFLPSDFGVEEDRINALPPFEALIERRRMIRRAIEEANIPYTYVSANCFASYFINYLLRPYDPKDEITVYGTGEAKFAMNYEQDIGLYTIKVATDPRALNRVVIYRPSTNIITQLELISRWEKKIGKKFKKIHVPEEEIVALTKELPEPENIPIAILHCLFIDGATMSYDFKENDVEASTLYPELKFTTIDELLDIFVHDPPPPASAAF
Description: X-ray crystallography (preliminary structural analysis). The class given is binding.

Data set [5] deals with T1, eugenol synthase (EGS, EGS1). Description: X-ray crystal structure ([…] Å monoclinic; also 2QX7 orthorhombic). The class given is binding.
Data set [6] shares this target. Description: X-ray crystal structure ([…] Å). The class given is binding.
Substrate in data set [7]: COc1cc(/C=C/COC(C)=O)ccc1O
Description: enzyme kinetics by GC/MS (Km); crystal soaking gave no stable complex. Particulars: NADPH active site (binding mode modeled only). The class given is biochemical, Ocimum basilicum.

Here are results for four molecules from article PMC1991597, “Structure and Reaction Mechanism of Basil Eugenol Synthase” (PLoS ONE, 2007).

Broadly, the Ki is a dissociation constant, usually derived from enzyme kinetics or from competition with a known ligand. A word on the Km: it is the substrate concentration at which the rate is half of its maximum.

In the case of `CCOC(=O)[C@H]1C[C@@H]1c1ccc(O)c(OC)c1` [EMDF, (1S,2S)-ethyl 2-(4-hydroxy-3-methoxyphenyl) cyclo-propanecarboxylate], in data set [1], the Ki worked out at 800 µM. The “X-ray crystallography (no deposition stated)” value in data set [2] was “Crystallographic analyses confirmed that for the Ala132 and Gln132 mutants, both NADP^+ and EMDF binding are little affected”. For the same molecule, the “X-ray co-crystal structure (1.8 Å)” value in data set [3] is “for the Ala132 and Gln132 mutants, both NADP^+ and EMDF binding are little affected (Figure 5C)”. For the same molecule, the “X-ray crystallography (preliminary structural analysis)” value in data set [4] is reported as “EMDF-bound forms of the Lys132Arg mutant shows that the Arg132 guanidinium moiety is displaced slightly by the EMDF guaiacol ring”. Regarding `NC(=O)c1ccc[n+]([C@@H]2O[C@H](COP(=O)(O)OP(=O)(O)OC[C@H]3O[C@@H](n4cnc5c(N)ncnc54)[C@H](OP(=O)(O)O)[C@@H]3O)[C@@H](O)[C@H]2O)c1` [NADP+], the “X-ray crystal structure (1.6 Å monoclinic; also 2QX7 orthorhombic)” value in data set [5] is “The structures of EGS complexed with NADP^+ or NADPH provide the first structural characterization of nicotinamide-cofactor binding”. Take `NC(=O)C1=CN([C@@H]2O[C@H](COP(=O)(O)OP(=O)(O)OC[C@H]3O[C@@H](n4cnc5c(N)ncnc54)[C@H](OP(=O)(O)O)[C@@H]3O)[C@@H](O)[C@H]2O)C=CC1` [NADPH]: the “X-ray crystal structure (1.6 Å)” value in data set [6] was “Structural differences between the NADP^+ and NADPH complexes of EGS are small, and center around the nicotinamide ring”.

B1: eugenol synthase (EGS, EGS1) (Ocimum basilicum) (protein)
chain: MEENGMKSKILIFGGTGYIGNHMVKGSLKLGHPTYVFTRPNSSKTTLLDEFQSLGAIIVKGELDEHEKLVELMKKVDVVISALAFPQILDQFKILEAIKVAGNIKRFLPSDFGVEEDRINALPPFEALIERKRMIRRAIEEANIPYTYVSANCFASYFINYLLRPYDPKDEITVYGTGEAKFAMNYEQDIGLYTIKVATDPRALNRVVIYRPSTNIITQLELISRWEKKIGKKFKKIHVPEEEIVALTKELPEPENIPIAILHCLFIDGATMSYDFKENDVEASTLYPELKFTTIDELLDIFVHDPPPPASAAF
As to B1, the Km in data set [7] was found to be 570 µM.
